Where only a bound is given, the exact number is not on record here.

We go through 33 molecules from patent US11685732B2, “MYST family histone acetyltransferase inhibitors” (Epizyme, Inc., priority 2017, dated 2023).

Assay [1] addresses KAT-5 (Homo sapiens (Human), UniProt Q92993). As to the kind of experiment: KAT-5 biochemical inhibition assay (SAMDI mass spectrometry). An outline of the steps: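 KAT-5 at 9 nM final was preincubated with serially diluted compound (2% DMSO) in 50 mM Tris pH 8.0 with 1 mM DTT. Reaction ran with 1 μM peptide substrate and 0.5 μM acetyl-CoA for 90 min at 25° C, was quenched with 0.5% formic acid, and was read by SAMDI-TOF mass spectrometry.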

Assay [2] concerns the target KAT-8 (Homo sapiens (Human), UniProt Q9H7Z6). The assay is described as follows: KAT-8 biochemical inhibition assay (SAMDI mass spectrometry). An outline of the steps: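 Compounds in 2% DMSO pre-incubated with 12.5 nM enzyme in 50 mM Tris pH 8.0 with Tween20, gelatin and 1 mM DTT. Then 1 μM peptide and 5 μM acetyl-CoA were added, 90 min at 25 °C; formic acid stop and SAMDI-TOF mass spectrometry for IC50.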

Assay [3] deals with KAT-6A (Homo sapiens (Human), UniProt Q92794). The assay is described as follows: KAT-6A biochemical inhibition assay (SAMDI mass spectrometry). An outline of the steps:
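Enzyme (12.5 nM final) pre-incubated with serially diluted compounds (2% DMSO final) in 50 mM Tris pH 8.0 with Tween20, gelatin and 1 mM DTT. Reaction started with 1 μM peptide substrate and 1 μM acetyl-CoA, run 90 min at 25 °C, quenched with 0.5% formic acid, read by SAMDI-TOF mass spectrometry; IC50 derived.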

For assay [4], the target named is KAT-7 (Homo sapiens (Human), UniProt O95251). As to the kind of experiment: KAT-7 biochemical inhibition assay (SAMDI mass spectrometry). An outline of the steps: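 KAT-7 (6 nM) was pre-incubated with serially diluted compound (2% DMSO) in Tris pH 8.0 with DTT. Reaction with 1 μM peptide and 2 μM acetyl-CoA ran 120 min at 25 °C and was stopped with 0.5% formic acid. Acetylation was read by SAMDI-TOF mass spectrometry to give IC50.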
KAT-7, sequence (O95251 other isoform, or with tags, fused parts or gaps): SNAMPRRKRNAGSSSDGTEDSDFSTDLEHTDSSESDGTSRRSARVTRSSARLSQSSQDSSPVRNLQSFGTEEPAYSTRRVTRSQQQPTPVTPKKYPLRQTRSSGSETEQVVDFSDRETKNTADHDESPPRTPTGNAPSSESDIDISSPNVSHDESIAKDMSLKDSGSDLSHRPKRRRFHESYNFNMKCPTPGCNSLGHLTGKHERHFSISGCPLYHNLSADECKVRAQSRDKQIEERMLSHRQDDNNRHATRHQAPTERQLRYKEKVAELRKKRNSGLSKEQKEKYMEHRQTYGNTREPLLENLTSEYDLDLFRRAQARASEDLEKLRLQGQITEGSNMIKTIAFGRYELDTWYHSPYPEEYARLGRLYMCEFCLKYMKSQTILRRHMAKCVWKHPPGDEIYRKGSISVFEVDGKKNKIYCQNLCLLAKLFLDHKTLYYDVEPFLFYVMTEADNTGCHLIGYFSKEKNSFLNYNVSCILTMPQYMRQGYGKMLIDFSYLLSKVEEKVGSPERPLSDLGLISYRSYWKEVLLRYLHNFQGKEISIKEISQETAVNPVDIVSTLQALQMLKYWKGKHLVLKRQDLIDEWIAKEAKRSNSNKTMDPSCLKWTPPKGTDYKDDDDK

KAT-5, sequence (Q92993 other isoform, or with tags, fused parts or gaps): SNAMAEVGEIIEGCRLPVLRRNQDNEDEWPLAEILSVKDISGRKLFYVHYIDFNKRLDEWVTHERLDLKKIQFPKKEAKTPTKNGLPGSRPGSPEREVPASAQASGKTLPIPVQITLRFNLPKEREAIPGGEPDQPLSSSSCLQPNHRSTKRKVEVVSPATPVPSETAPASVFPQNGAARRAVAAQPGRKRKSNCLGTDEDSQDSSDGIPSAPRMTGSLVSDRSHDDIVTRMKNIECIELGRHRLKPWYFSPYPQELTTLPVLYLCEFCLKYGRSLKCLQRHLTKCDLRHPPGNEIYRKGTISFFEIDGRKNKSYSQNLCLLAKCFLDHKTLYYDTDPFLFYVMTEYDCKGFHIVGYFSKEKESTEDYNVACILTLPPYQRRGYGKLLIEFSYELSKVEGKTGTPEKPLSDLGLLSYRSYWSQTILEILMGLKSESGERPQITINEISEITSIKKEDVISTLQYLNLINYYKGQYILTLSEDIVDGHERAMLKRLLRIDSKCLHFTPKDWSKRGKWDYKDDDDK
KAT-8, sequence (Q9H7Z6 other isoform, or with tags, fused parts or gaps): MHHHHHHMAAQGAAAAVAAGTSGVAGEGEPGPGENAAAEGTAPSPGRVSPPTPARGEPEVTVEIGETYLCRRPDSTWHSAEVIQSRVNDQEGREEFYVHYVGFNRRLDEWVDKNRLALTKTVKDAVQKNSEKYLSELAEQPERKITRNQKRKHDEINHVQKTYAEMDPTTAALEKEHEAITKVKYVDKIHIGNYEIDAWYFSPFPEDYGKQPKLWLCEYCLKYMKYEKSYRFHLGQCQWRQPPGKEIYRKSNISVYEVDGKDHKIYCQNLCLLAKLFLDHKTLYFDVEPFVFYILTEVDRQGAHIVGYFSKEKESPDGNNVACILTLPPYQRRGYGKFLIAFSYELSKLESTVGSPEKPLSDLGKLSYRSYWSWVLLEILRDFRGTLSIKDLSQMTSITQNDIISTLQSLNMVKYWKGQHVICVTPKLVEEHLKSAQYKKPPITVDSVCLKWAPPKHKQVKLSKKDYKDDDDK
KAT-6A, sequence (Q92794 other isoform, or with tags, fused parts or gaps): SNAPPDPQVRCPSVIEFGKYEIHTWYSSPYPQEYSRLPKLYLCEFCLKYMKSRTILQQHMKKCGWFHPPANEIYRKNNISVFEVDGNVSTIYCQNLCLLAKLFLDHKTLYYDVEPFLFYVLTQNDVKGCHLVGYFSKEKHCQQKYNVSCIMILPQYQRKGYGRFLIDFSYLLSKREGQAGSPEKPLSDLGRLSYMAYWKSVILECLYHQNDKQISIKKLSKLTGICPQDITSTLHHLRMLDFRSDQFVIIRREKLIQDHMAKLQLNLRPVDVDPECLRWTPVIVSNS

As a reminder, the IC50 is the concentration that gives 50% inhibition. Read a low IC50 as greater potency. As to `CNC(=O)N1CC[C@H](CS(=O)(=O)NNC(=O)c2cc(-c3cn(C)cn3)cc(Cl)c2F)C1` [Compound I-210], the half-inhibitory concentration (IC50) in assay [1] was less than 10 µM; in assay [2] it was 10 to 50 µM; in assay [3], 10 to 50 µM; in assay [4], less than 10 µM.

As for `Cn1cnc(-c2cc(Cl)c(F)c(C(=O)NNS(=O)(=O)C[C@H]3CC[C@H](NS(C)(=O)=O)CC3)c2)c1` [Compound I-211], the 50% inhibitory concentration (IC50) in assay [1] is less than 10 µM; in assay [2], 10 to 50 µM; in assay [3], less than 10 µM; in assay [4], less than 10 µM.

As for `COCCn1cc(S(=O)(=O)NNC(=O)c2cc(-c3cn(C)cn3)cc(Cl)c2F)cn1` [Compound I-212], the IC50 in assay [1] was 10 to 50 µM; in assay [2] it was 10 to 50 µM; in assay [3], 10 to 50 µM; in assay [4], less than 10 µM.

On to `COc1ccc(CNC(=O)N[C@H]2C[C@@H](CS(=O)(=O)NNC(=O)c3cc(-c4cn(C)cn4)cc(Cl)c3F)C2)cc1` [Compound I-213], for which the IC50 in assay [1] is less than 10 µM; in assay [2], 10 to 50 µM; in assay [3], less than 10 µM; in assay [4], less than 10 µM.

With `COc1ccc(CNC(=O)N2CCCC(CS(=O)(=O)NNC(=O)c3cc(-c4cn(C)cn4)cc(Cl)c3F)C2)cc1` (stereo not drawn) [Compound I-214], the IC50 is less than 10 µM in assay [1], 10 to 50 µM in assay [2], less than 10 µM in assay [3] and less than 10 µM in assay [4].

Consider `Cn1cnc(-c2cc(Cl)c(F)c(C(=O)NNS(=O)(=O)CC3CCCN(C(N)=O)C3)c2)c1` (stereo not drawn) [Compound I-215], for which the IC50 in assay [1] was less than 10 µM; in assay [2], 10 to 50 µM; in assay [3], less than 10 µM; in assay [4], less than 10 µM.

On to `COCCN(Cc1ccc(OC)cc1)C(=O)N1CCCC(CS(=O)(=O)NNC(=O)c2cc(-c3cn(C)cn3)cc(Cl)c2F)C1` (stereo not drawn) [Compound I-216], for which the concentration for half-maximal inhibition (IC50) in assay [1] is less than 10 µM; in assay [2], 10 to 50 µM; in assay [3], 10 to 50 µM; in assay [4] it was less than 10 µM.

As to `COCCNC(=O)N1CCCC(CS(=O)(=O)NNC(=O)c2cc(-c3cn(C)cn3)cc(Cl)c2F)C1` (stereo not drawn) [Compound I-217], the 50% inhibitory concentration (IC50) was less than 10 µM in assay [1], 10 to 50 µM in assay [2], less than 10 µM in assay [3] and less than 10 µM in assay [4].

As for `Cn1cnc(-c2cc(Cl)c(F)c(C(=O)NNS(=O)(=O)CC3CCCC(NC(=O)C4CCC4)C3)c2)c1` (stereo not drawn) [Compound I-218], the 50% inhibitory concentration (IC50) in assay [1] was less than 10 µM; in assay [2] it was 10 to 50 µM; in assay [3], less than 10 µM; in assay [4] it was less than 10 µM.

In the case of `O=C(NNS(=O)(=O)CC1CCCCC1)c1cc(-c2cn(Cc3ncco3)cn2)cc(Cl)c1F` [Compound I-219], the concentration for half-maximal inhibition (IC50) in assay [1] is less than 10 µM; in assay [2], 10 to 50 µM; in assay [3], less than 10 µM; in assay [4], less than 10 µM.

On to `Cn1cnc(-c2cc(Cl)c(F)c(C(=O)NNS(=O)(=O)CC3CN(S(C)(=O)=O)C3)c2)c1` [Compound I-220], for which the IC50 in assay [1] is 10 to 50 µM; in assay [2] it was 10 to 50 µM; in assay [3], 10 to 50 µM; in assay [4], less than 10 µM.

As for `CCC(=O)N[C@H]1CC[C@@H](CS(=O)(=O)NNC(=O)c2cc(-c3cn(C)cn3)cc(Cl)c2F)CC1` [Compound I-221], the half-maximal inhibitory concentration (IC50) in assay [1] is less than 10 µM; in assay [2], 10 to 50 µM; in assay [3], less than 10 µM; in assay [4], less than 10 µM.

For the molecule `CC(C)C(=O)N[C@H]1CC[C@@H](CS(=O)(=O)NNC(=O)c2cc(-c3cn(C)cn3)cc(Cl)c2F)CC1` [Compound I-222], the 50% inhibitory concentration (IC50) in assay [1] is less than 10 µM; in assay [2], 10 to 50 µM; in assay [3], 10 to 50 µM; in assay [4] it was less than 10 µM.

With `CN1CC(CS(=O)(=O)NNC(=O)c2cc(-c3cn(C)cn3)cc(Cl)c2F)CC1=O` (stereo not drawn) [Compound I-224], the IC50 in assay [1] was 10 to 50 µM; in assay [2] it was 10 to 50 µM; in assay [3], 10 to 50 µM; in assay [4], less than 10 µM.

Consider `Cn1cnc(-c2cc(Cl)c(F)c(C(=O)NNS(=O)(=O)CC3CCCN(C(=O)NCCO)C3)c2)c1` (stereo not drawn) [Compound I-225], for which the concentration for half-maximal inhibition (IC50) is less than 10 µM in assay [1], 10 to 50 µM in assay [2], less than 10 µM in assay [3] and less than 10 µM in assay [4].

With `COCc1nc(-c2cc(Cl)c(F)c(C(=O)NNS(=O)(=O)CC3CCCCC3)c2)cn1C` [Compound I-226], the IC50 in assay [1] was less than 10 µM; in assay [2] it was 10 to 50 µM; in assay [3] it was 10 to 50 µM; in assay [4] it was less than 10 µM.

Take `Cn1cnc(-c2cc(Cl)c(F)c(C(=O)NNS(=O)(=O)c3nccs3)c2)c1` [Compound I-227]: the IC50 in assay [1] was less than 10 µM; in assay [2] it was 10 to 50 µM; in assay [3], less than 10 µM; in assay [4] it was less than 10 µM.

For the molecule `Cn1cnc(-c2cc(Cl)c(F)c(C(=O)NNS(=O)(=O)CC3CCN(C(=O)NCCO)C3)c2)c1` (stereo not drawn) [Compound I-228], the IC50 in assay [1] is less than 10 µM; in assay [2], 10 to 50 µM; in assay [3], 10 to 50 µM; in assay [4], less than 10 µM.

Turning to `Cn1cnc(-c2cc(Cl)c(F)c(C(=O)NNS(=O)(=O)C[C@H]3CC[C@H](NC(=O)Cc4ccccc4)CC3)c2)c1` [Compound I-229], the IC50 is less than 10 µM in assay [1], 10 to 50 µM in assay [2], less than 10 µM in assay [3] and less than 10 µM in assay [4].

In the case of `Cn1cnc(-c2cc(Cl)c(F)c(C(=O)NNS(=O)(=O)CC3CCCC(NC(=O)c4ccccc4)C3)c2)c1` (stereo not drawn) [Compound I-230], the half-maximal inhibitory concentration (IC50) in assay [1] is less than 10 µM; in assay [2], 10 to 50 µM; in assay [3] it was less than 10 µM; in assay [4], less than 10 µM.

In the case of `Cn1cnc(-c2cc(Cl)c(F)c(C(=O)NNS(=O)(=O)CC3CCCC(NC(=O)Cc4ccccc4)C3)c2)c1` (stereo not drawn) [Compound I-231], the half-inhibitory concentration (IC50) in assay [1] was less than 10 µM; in assay [2] it was 10 to 50 µM; in assay [3] it was less than 10 µM; in assay [4], less than 10 µM.

For the molecule `Cn1cnc(-c2cc(Cl)c(F)c(C(=O)NNC3CCS(=O)(=O)C3)c2)c1` (stereo not drawn) [Compound I-232], the IC50 in assay [1], in assay [2], in assay [3] and in assay [4] was 10 to 50 µM each time.

For `COCCn1nc(-c2cc(Cl)c(F)c(C(=O)NNS(=O)(=O)CC3CCCCC3)c2)cc1C` [Compound I-233], the half-maximal inhibitory concentration (IC50) in assay [1] is 10 to 50 µM; in assay [2], 10 to 50 µM; in assay [3], 10 to 50 µM; in assay [4], less than 10 µM.

On to `Cn1cnc(-c2cc(Cl)c(F)c(C(=O)NNS(=O)(=O)CC3CCCC(NC(=O)c4ccccn4)C3)c2)c1` (stereo not drawn) [Compound I-234], for which the 50% inhibitory concentration (IC50) in assay [1] is less than 10 µM; in assay [2], 10 to 50 µM; in assay [3], less than 10 µM; in assay [4] it was less than 10 µM.

In the case of `Cn1cnc(-c2cc(Cl)c(F)c(C(=O)NNS(=O)(=O)C[C@H]3C[C@@H](NC(N)=O)C3)c2)c1` [Compound I-235], the IC50 in assay [1] is less than 10 µM; in assay [2], 10 to 50 µM; in assay [3], less than 10 µM; in assay [4] it was less than 10 µM.

For the molecule `Cn1cnc(-c2cc(Cl)c(F)c(C(=O)NNS(=O)(=O)CC3CCCC(NC(=O)c4cccnc4)C3)c2)c1` (stereo not drawn) [Compound I-236], the IC50 is less than 10 µM in assay [1], 10 to 50 µM in assay [2], less than 10 µM in assay [3] and less than 10 µM in assay [4].

On to `Cn1cnc(-c2cc(Cl)c(F)c(C(=O)NNS(=O)(=O)c3cn(C)cn3)c2)c1` [Compound I-237], for which the IC50 in assay [1] is 10 to 50 µM; in assay [2], 10 to 50 µM; in assay [3], less than 10 µM; in assay [4], less than 10 µM.

Consider `Cn1cnc(-c2cc(Cl)c(F)c(C(=O)NNS(=O)(=O)CC3CCCC(NC(=O)c4ccncc4)C3)c2)c1` (stereo not drawn) [Compound I-238], for which the half-inhibitory concentration (IC50) in assay [1] was less than 10 µM; in assay [2], 10 to 50 µM; in assay [3], less than 10 µM; in assay [4], less than 10 µM.

As for `Cn1cnc(-c2cc(Cl)c(F)c(C(=O)NNS(=O)(=O)CC3(C)CCOCC3)c2)c1` [Compound I-239], the concentration for half-maximal inhibition (IC50) was less than 10 µM in assay [1], 10 to 50 µM in assay [2], 10 to 50 µM in assay [3] and less than 10 µM in assay [4].

Consider `Cn1cnc(-c2cc(Cl)c(F)c(C(=O)NNS(=O)(=O)C[C@H]3CC[C@H](NC(=O)c4ccccc4)CC3)c2)c1` [Compound I-240], for which the IC50 was less than 10 µM in assay [1], 10 to 50 µM in assay [2], less than 10 µM in assay [3] and less than 10 µM in assay [4].

Take `Cn1cnc(-c2cc(Cl)c(F)c(C(=O)NNS(=O)(=O)C[C@H]3CC[C@H](NC(=O)c4cccnc4)CC3)c2)c1` [Compound I-241]: the IC50 in assay [1] was less than 10 µM; in assay [2] it was 10 to 50 µM; in assay [3], less than 10 µM; in assay [4] it was less than 10 µM.

As for `Cn1cnc(-c2cc(Cl)c(F)c(C(=O)NNS(=O)(=O)CC3CC4CCC(C3)O4)c2)c1` (stereo not drawn) [Compound I-242], the 50% inhibitory concentration (IC50) is less than 10 µM in assay [1], 10 to 50 µM in assay [2], less than 10 µM in assay [3] and less than 10 µM in assay [4].

Turning to `Cn1cnc(-c2cc(Cl)c(F)c(C(=O)NNS(=O)(=O)CC3CCCC(NC(=O)Cc4cccnc4)C3)c2)c1` (stereo not drawn) [Compound I-243], the half-maximal inhibitory concentration (IC50) in assay [1] was less than 10 µM; in assay [2], 10 to 50 µM; in assay [3], less than 10 µM; in assay [4] it was less than 10 µM.
